Laboratory results: paper PMC3885398, “Evaluation of the Antitumor Effects of BPR1J-340, a Potent and Selective FLT3 Inhibitor, Alone or in Combination with an HDAC Inhibitor, Vorinostat, in AML Cancer” (PLoS ONE, 2014)

What was measured:
Assay in all cases: Invitrogen SelectScreen kinase profiling
Type in all cases: biochemical
Details in all cases: 100 nM
[1] = biological target: T1, CSK (Homo sapiens, UniProt P41240)
T1 construct: purchased Invitrogen SelectScreen
Experimental: (§1) The FLT3 and VEGFR1/2 Kinase-Glo kinase assays were performed as reported by our earlier study. The VEGFR3 activity analysis was conducted using the same protocol described in the VEGFR1/2 assay. The kinase inhibition profiling and inhibitory activity of FLT3-D835Y, CSF1R, and TRKA were determined by Invitrogen SelectScreen® kinase profiling service (Carlsbad, California, USA).
(§2) BPR1J-340, a urea-substituted 3-phenyl-1H-5-pyrazolylamine-based compound, was designed through chemical modification of sulfonamide series of derivatives (BPR1J-097 series) by a structure-activity relationship (SAR) study (Fig. 1), [32]. For kinase inhibition specificity screening, BPR1J-340 was tested against 59 protein kinases covering the major oncogenic kinases of human protein kinome. […] In addition, BPR1J-340 inhibited TRKA, which is associated with the growth and metastasis of breast cancers, with an IC50 value of 8 nM. Given the high similarity of the ATP binding pockets of FLT3 and the Aurora kinases, the inhibitory activity toward Aurora A and Aurora B were measured. […] Taken together, BPRJ-340 is a selective kinase inhibitor with in vitro activity against FLT3, VEGFR2, VEGFR3 and TRKA receptor tyrosine kinases.

[2] = biological target: T2, PLK1 (Homo sapiens, UniProt P53350)
T2 construct: purchased Invitrogen SelectScreen
Experimental: as §1, §2

[3] = biological target: T3, MAP2K1 (MEK1) (Homo sapiens, UniProt Q02750)
T3 construct: purchased Invitrogen SelectScreen
Experimental: as §1, §2

[4] = biological target: T4, NEK2 (Homo sapiens, UniProt P51955)
T4 construct: purchased Invitrogen SelectScreen
Experimental: as §1, §2

[5] = biological target: T5, CLK1 (Homo sapiens, UniProt P49759)
T5 construct: purchased Invitrogen SelectScreen
Experimental: as §1, §2

[6] = biological target: T6, MET (cMet) (Homo sapiens, UniProt P08581)
T6 construct: purchased Invitrogen SelectScreen
Experimental: as §1, §2

[7] = biological target: T7, PDGFRA (PDGFR alpha) (Homo sapiens, UniProt P16234)
T7 construct: purchased Invitrogen SelectScreen
Experimental: as §1, §2

[8] = biological target: T8, SGK (SGK1) (Homo sapiens, UniProt O00141)
T8 construct: purchased Invitrogen SelectScreen
Experimental: as §1, §2

[9] = biological target: T9, FLT3 (Homo sapiens, UniProt P36888)
T9 construct: purchased Invitrogen SelectScreen
Experimental: as §1, §2

[10] = biological target: T10, IGF1R (Homo sapiens, UniProt P08069)
T10 construct: purchased Invitrogen SelectScreen
Experimental: as §1, §2

[11] = biological target: T11, FGFR1 (Homo sapiens, UniProt P11362)
T11 construct: purchased Invitrogen SelectScreen
Experimental: as §1, §2

[12] = biological target: T12, RET (Homo sapiens, UniProt P07949)
T12 construct: purchased Invitrogen SelectScreen
Experimental: as §1, §2

[13] = biological target: T13, ERBB2 (HER2) (Homo sapiens, UniProt P04626)
T13 construct: purchased Invitrogen SelectScreen
Experimental: as §1, §2

[14] = biological target: T14, AURKA (Aurora A) (Homo sapiens, UniProt O14965)
T14 construct: purchased Invitrogen SelectScreen
Experimental: as §1, §2

[15] = biological target: T15, RPS6KA5 (MSK1) (Homo sapiens, UniProt O75582)
T15 construct: purchased Invitrogen SelectScreen
Experimental: as §1, §2

[16] = biological target: T16, MAPK8 (JNK1) (Homo sapiens, UniProt P45983)
T16 construct: purchased Invitrogen SelectScreen
Experimental: as §1, §2

[17] = biological target: T17, TYK2 (Homo sapiens, UniProt P29597)
T17 construct: purchased Invitrogen SelectScreen
Experimental: as §1, §2

[18] = biological target: T18, FRAP1 (mTOR) (Homo sapiens, UniProt P42345)
T18 construct: purchased Invitrogen SelectScreen
Experimental: as §1, §2

[19] = biological target: T19, CDK2/cyclin A (Homo sapiens, UniProt P24941)
T19 construct: purchased Invitrogen SelectScreen
Experimental: as §1, §2

[20] = biological target: T20, RPS6KB1 (p70S6K) (Homo sapiens, UniProt P23443)
T20 construct: purchased Invitrogen SelectScreen
Experimental: as §1, §2

[21] = biological target: T21, IRAK4 (Homo sapiens, UniProt Q9NWZ3)
T21 construct: purchased Invitrogen SelectScreen
Experimental: as §1, §2

[22] = biological target: T22, ABL1 (Homo sapiens, UniProt P00519)
T22 construct: purchased Invitrogen SelectScreen
Experimental: as §1, §2

[23] = biological target: T23, RPS6KA3 (RSK2) (Homo sapiens, UniProt P51812)
T23 construct: purchased Invitrogen SelectScreen
Experimental: as §1, §2

[24] = biological target: T24, AMPK A1/B1/G1 (Homo sapiens, UniProt Q13131)
T24 construct: purchased Invitrogen SelectScreen
Experimental: as §1, §2

[25] = biological target: T25, BRAF (Homo sapiens, UniProt P15056)
T25 construct: purchased Invitrogen SelectScreen
Experimental: as §1, §2

[26] = biological target: T26, GSK3B (GSK3 beta) (Homo sapiens, UniProt P49841)
T26 construct: purchased Invitrogen SelectScreen
Experimental: as §1, §2

[27] = biological target: T27, RAF1 (cRAF) Y340D Y341D (Homo sapiens, UniProt P04049, Y340D/Y341D)
T27 construct: purchased Invitrogen SelectScreen
Experimental: as §1, §2

[28] = biological target: T28, CHEK1 (CHK1) (Homo sapiens, UniProt O14757)
T28 construct: purchased Invitrogen SelectScreen
Experimental: as §1, §2

[29] = biological target: T29, AKT1 (PKB alpha) (Homo sapiens, UniProt P31749)
T29 construct: purchased Invitrogen SelectScreen
Experimental: as §1, §2

[30] = biological target: T30, RPS6KA2 (RSK3) (Homo sapiens, UniProt Q15349)
T30 construct: purchased Invitrogen SelectScreen
Experimental: as §1, §2

[31] = biological target: T31, CLK2 (Homo sapiens, UniProt P49760)
T31 construct: purchased Invitrogen SelectScreen
Experimental: as §1, §2

[32] = biological target: T32, FLT1 (VEGFR1) (Homo sapiens, UniProt P17948)
T32 construct: purchased Invitrogen SelectScreen
Experimental: as §1, §2

[33] = biological target: T33, IKBKE (IKK epsilon) (Homo sapiens, UniProt Q14164)
T33 construct: purchased Invitrogen SelectScreen
Experimental: as §1, §2

[34] = biological target: T34, SGK2 (Homo sapiens, UniProt Q9HBY8)
T34 construct: purchased Invitrogen SelectScreen
Experimental: as §1, §2

[35] = biological target: T35, ABL1 T315I (Homo sapiens, UniProt P00519, T315I)
T35 construct: purchased Invitrogen SelectScreen
Experimental: as §1, §2

[36] = biological target: T36, MST1R (RON) (Homo sapiens, UniProt Q04912)
T36 construct: purchased Invitrogen SelectScreen
Experimental: as §1, §2

T11 sequence (P11362 22-822): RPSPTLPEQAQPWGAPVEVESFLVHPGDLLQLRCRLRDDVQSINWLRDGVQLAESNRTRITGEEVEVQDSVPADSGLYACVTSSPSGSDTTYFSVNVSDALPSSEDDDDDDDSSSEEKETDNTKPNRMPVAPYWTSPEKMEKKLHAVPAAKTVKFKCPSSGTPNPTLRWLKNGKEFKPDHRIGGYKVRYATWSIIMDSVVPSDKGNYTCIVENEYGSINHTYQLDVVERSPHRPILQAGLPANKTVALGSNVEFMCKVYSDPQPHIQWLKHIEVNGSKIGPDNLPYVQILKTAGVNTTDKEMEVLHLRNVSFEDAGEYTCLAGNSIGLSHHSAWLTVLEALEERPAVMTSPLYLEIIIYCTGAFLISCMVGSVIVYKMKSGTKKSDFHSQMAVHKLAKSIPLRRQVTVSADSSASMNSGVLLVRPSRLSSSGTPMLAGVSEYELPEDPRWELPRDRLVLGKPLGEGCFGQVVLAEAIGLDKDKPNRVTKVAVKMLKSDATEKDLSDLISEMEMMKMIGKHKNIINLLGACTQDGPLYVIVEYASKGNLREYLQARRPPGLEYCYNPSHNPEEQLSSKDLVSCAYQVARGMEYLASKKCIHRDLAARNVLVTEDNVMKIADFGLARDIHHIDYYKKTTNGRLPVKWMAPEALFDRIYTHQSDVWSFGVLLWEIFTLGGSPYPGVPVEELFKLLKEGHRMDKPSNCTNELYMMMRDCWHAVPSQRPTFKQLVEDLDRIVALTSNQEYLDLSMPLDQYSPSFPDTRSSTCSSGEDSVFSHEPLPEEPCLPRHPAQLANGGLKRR
T25 sequence (P15056 whole entry): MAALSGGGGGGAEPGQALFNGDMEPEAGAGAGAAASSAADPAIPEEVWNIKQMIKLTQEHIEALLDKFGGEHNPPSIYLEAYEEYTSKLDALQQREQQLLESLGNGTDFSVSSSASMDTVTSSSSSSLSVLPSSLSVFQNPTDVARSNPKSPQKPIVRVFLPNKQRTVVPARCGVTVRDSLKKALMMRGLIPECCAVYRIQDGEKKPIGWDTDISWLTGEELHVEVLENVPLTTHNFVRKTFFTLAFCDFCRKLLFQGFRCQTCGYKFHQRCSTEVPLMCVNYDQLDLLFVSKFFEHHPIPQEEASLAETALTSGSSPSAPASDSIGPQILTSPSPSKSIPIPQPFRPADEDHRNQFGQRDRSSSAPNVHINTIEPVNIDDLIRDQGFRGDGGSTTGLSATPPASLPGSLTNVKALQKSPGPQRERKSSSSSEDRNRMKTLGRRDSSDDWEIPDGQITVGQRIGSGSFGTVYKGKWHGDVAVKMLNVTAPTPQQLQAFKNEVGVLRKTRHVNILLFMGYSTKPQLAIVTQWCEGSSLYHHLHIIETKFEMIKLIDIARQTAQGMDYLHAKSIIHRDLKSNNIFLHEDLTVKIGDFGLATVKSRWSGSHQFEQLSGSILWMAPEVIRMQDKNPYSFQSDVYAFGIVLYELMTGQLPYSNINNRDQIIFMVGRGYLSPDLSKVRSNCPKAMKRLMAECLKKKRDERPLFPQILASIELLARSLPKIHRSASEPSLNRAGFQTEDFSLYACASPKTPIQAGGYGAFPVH
T20 sequence (P23443 whole entry): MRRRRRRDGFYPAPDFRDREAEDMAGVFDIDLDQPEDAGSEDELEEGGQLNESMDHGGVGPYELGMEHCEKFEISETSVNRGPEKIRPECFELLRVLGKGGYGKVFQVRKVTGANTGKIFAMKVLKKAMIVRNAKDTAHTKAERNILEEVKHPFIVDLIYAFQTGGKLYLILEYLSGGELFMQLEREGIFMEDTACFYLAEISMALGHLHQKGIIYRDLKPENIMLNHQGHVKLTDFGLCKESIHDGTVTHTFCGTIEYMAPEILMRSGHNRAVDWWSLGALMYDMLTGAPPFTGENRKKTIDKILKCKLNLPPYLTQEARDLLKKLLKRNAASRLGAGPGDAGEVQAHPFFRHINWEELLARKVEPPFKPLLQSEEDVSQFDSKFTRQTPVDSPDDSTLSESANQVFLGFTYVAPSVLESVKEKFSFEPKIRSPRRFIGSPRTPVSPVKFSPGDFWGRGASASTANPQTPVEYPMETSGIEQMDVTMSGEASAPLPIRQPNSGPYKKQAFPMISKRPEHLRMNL
T8 sequence (O00141 whole entry): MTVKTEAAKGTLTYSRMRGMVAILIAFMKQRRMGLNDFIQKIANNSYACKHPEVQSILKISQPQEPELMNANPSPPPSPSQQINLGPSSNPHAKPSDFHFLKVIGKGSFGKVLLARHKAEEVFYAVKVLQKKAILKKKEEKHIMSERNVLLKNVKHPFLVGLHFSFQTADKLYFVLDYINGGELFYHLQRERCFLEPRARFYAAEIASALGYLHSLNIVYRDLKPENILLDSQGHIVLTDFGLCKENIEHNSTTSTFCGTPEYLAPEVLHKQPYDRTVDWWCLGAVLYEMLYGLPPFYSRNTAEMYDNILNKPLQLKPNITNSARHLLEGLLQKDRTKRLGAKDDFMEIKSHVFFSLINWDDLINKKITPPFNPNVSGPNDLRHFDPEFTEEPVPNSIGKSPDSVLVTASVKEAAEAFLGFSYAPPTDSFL
T17 sequence (P29597 whole entry): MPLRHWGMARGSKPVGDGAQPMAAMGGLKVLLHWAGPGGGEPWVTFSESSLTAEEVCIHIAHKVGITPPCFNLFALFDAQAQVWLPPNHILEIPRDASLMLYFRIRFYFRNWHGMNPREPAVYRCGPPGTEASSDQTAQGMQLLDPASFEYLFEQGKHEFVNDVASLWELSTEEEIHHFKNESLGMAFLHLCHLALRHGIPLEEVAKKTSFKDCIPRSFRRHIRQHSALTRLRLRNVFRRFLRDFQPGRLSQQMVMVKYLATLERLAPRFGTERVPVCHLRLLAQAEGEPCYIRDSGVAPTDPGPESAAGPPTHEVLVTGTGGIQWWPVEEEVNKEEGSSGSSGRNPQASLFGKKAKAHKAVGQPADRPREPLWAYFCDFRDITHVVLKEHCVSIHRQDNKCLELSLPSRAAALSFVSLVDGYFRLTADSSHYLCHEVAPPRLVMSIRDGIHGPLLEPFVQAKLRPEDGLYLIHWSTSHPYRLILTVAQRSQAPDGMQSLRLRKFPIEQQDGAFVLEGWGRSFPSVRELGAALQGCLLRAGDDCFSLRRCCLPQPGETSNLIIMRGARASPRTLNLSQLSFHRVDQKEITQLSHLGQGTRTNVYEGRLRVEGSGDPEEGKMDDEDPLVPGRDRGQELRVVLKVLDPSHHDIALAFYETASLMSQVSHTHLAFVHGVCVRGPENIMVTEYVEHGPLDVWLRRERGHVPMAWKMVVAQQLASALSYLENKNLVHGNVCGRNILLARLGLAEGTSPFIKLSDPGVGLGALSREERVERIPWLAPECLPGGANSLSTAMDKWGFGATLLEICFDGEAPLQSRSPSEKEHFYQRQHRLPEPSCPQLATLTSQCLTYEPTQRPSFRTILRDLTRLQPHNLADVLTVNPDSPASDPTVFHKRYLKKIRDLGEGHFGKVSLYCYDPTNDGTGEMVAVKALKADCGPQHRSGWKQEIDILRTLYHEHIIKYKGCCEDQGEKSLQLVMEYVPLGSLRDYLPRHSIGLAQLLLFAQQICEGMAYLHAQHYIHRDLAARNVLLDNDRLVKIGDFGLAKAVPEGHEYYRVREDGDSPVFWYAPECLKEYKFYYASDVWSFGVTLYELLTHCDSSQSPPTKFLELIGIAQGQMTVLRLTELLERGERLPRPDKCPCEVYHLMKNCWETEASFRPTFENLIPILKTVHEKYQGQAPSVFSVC
T7 sequence (P16234 24-1089): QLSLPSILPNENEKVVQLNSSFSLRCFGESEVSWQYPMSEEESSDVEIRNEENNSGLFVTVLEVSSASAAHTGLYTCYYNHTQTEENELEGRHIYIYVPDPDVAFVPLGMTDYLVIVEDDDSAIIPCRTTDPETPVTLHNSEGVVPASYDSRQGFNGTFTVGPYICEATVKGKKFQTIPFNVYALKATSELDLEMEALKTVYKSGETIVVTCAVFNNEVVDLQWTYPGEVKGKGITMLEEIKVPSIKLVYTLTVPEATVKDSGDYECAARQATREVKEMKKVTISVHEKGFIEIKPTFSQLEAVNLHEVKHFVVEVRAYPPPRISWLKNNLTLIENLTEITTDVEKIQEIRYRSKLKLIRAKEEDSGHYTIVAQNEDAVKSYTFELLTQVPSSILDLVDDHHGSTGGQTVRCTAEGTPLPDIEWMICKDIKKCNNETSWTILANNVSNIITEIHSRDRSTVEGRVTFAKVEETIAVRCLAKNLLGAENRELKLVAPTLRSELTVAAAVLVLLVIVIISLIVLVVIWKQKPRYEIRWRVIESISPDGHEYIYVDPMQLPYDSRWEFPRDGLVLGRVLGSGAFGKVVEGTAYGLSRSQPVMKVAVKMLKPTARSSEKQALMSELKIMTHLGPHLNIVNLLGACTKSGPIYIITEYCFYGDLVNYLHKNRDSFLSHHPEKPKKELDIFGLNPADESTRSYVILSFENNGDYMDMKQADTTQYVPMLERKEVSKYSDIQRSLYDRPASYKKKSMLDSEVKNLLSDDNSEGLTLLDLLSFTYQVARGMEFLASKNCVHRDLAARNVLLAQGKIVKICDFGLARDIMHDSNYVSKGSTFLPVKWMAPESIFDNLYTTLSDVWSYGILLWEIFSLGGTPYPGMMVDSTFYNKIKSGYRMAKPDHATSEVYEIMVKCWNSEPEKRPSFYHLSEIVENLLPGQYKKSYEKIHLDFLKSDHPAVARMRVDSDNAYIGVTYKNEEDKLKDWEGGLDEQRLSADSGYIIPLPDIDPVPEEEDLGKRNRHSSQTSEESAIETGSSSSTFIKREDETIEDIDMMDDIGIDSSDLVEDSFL

CCc1cc(NC(=O)NCc2ccc(-c3cc(NC(=O)c4ccc(CN5CCN(C)CC5)cc4)[nH]n3)cc2)no1 [BPR1J-340, N1-(3-4-[([(5-ethyl-3-isoxazolyl)amino]carbonylamino)methyl]phenyl-1H-5-pyrazolyl)-4-[(4-methylpiperazino)methyl]benzamide]
inhibition at 0.1 µM [1]: 3% | inhibition at 0.1 µM [2]: 4% | inhibition at 0.1 µM [3]: 0% | inhibition at 0.1 µM [4]: 2% | inhibition at 0.1 µM [5]: 6% | inhibition at 0.1 µM [6]: 17% | inhibition at 0.1 µM [7]: 38% | inhibition at 0.1 µM [8]: 11% | inhibition at 0.1 µM [9]: 97% | inhibition at 0.1 µM [10]: 12% | inhibition at 0.1 µM [11]: 17% | inhibition at 0.1 µM [12]: 49% | inhibition at 0.1 µM [13]: 11% | inhibition at 0.1 µM [14]: 15% | inhibition at 0.1 µM [15]: 16% | inhibition at 0.1 µM [16]: 14% | inhibition at 0.1 µM [17]: 23% | inhibition at 0.1 µM [18]: -8% | inhibition at 0.1 µM [19]: 5% | inhibition at 0.1 µM [20]: -18% | inhibition at 0.1 µM [21]: 4% | inhibition at 0.1 µM [22]: 7% | inhibition at 0.1 µM [23]: 0% | inhibition at 0.1 µM [24]: 30% | inhibition at 0.1 µM [25]: 5% | inhibition at 0.1 µM [26]: 36% | inhibition at 0.1 µM [27]: 4% | inhibition at 0.1 µM [28]: 27% | inhibition at 0.1 µM [29]: -2% | inhibition at 0.1 µM [30]: 9% | inhibition at 0.1 µM [31]: -7% | inhibition at 0.1 µM [32]: 15% | inhibition at 0.1 µM [33]: 21% | inhibition at 0.1 µM [34]: 22% | inhibition at 0.1 µM [35]: 15% | inhibition at 0.1 µM [36]: 6%
